From US20230272062A1, “Treatment Of Lung Disease Based Upon Stratification Of Polygenic Score Relating To Response To A Therapeutic Agent” (Regeneron Pharmaceuticals, Inc., priority 2021, published 2023) come the findings set out here.

A short description of test [1]: Change of FEV1 in dupilumab-treated subjects stratified by FEV1-PS. Format: in vivo, human. The settings on record: European subjects. From the text:
The covariates were AGE, SEX, STUDYID (study identifier), ICS_FL (taking inhaled corticosteroids at baseline; yes/no), EOSBL_300 FL (eosinophils >300 at baseline), ASMANUM_LOG (exacerbation history for the previous year), HGTBL (height baseline), FEV1BL, and PC1-4 (principal components 1-4). The FEV1-PS was divided into quartiles and ranked from lowest to highest, the number at the bottom of each bar is the number of subjects in each group, and the number inside each bar is the change in FEV1 values at week 12.
The covariates were AGE, SEX, STUDYID, ICS_FL, EOSBL_300 FL, ASMANUM_LOG, HGTBL, FEV1BL, and PC1-4.

A short description of test [2]: Annualized exacerbation rate in dupilumab-treated subjects stratified by FEV1-PS. Format: in vivo, human. The settings on record: European subjects, by FEV1-PS quartile (FIG. 3). From the text:
The covariates were AGE, SEX, STUDYID, ICS_FL, EOSBL_300 FL, ASMANUM_LOG, HGTBL, FEV1BL, and PC1-4. The FEV1-PS was divided into quartiles and ranked from lowest to highest, the number at the bottom of each bar is the number of subjects in each group, and the number inside each bar is the change in annualized exacerbation rate.

Entries after “also recorded” stand apart in the source; their conditions may differ.

As to dupilumab, in test [1] (by FEV1-PS (FIG. 2)), the “longitudinal increase of change of FEV1” value is on record as “significantly associated with better FEV1 improvement; also recorded: greatest FEV1 improvement”. Besides, the “change of FEV1 at week 12” value in test [1] (by FEV1-PS quartile, compared to placebo-treated patients (FIG. 1)) is on record as “significantly associated with better FEV1 improvement; also recorded: greatest improvement in FEV1”. Moreover, the annualized exacerbation rates entry in test [2] was “not associated with differences in annualized exacerbation rates”.
